The record followed here is ChEMBL document CHEMBL1134748, “Identification and characterization of a potential ischemia-selective N-methyl-D-aspartate (NMDA) receptor ion-channel blocker, CNS 5788” (Bioorg Med Chem Lett, 2001).

Data set [1] has as its target Sodium channel alpha subunits; brain (Types I, II, III) (Homo sapiens, UniProt P35498+Q99250+Q9NY46). The experiment in a line: Neuronal sodium channel blocking activity by [14C]guanidinium flux assay. It counts as functional.
Data set [2] is described as follows: Cardiac sodium channel blocking activity by [14C]guanidinium flux assay. It counts as functional.
For data set [3], the target named is Glutamate [NMDA] receptor. The experiment in a line: In vitro displacement of [3H]MK-801 from N-methyl-D-aspartate glutamate receptor. It counts as protein-complex assay.
The test system of data set [4] is Rattus norvegicus. As to the kind of experiment: Compound was tested in rotarod motor assay and the effective intravenous dose required to fall from the rod was reported. It counts as functional.
A short description of data set [5]: Half life value of the compound. As to conditions: rat. It counts as ADME.
For data set [6], the system named is Rattus norvegicus. The experiment in a line: Tested in rat middle cerebral artery occlusion model (MACO model) and percent reduction in total lesion volume at the dose of 4.5 mg/kg (combination ip and iv). As to conditions: route intraperitoneal.
The subject of data set [7] is Rattus norvegicus. As to the kind of experiment: Compound was tested in hypoxia -ischemia reduction model for percent reduction in lesion volume at the dose 10 mg/kg (ip).
Data set [8] can be described thus: Lowest effective intravenous dose required to observe the behavioral effects (excitation). It counts as functional.
Data set [9] has as its system Rattus norvegicus. The experiment in a line: Compound was tested in hypoxia -ischemia reduction model for percent reduction in lesion volume at the dose 20 mg/kg (ip).
Data set [10] is filed under the species Mus musculus. As to the kind of experiment: Effective dose required to block the audiogenic seizures. It counts as functional.
In data set [11] the test system is Rattus norvegicus. As to the kind of experiment: Tested in rat middle cerebral artery occlusion model (MACO model) and percent reduction in total lesion volume at the dose of 1.5 mg/kg (combination ip and iv). As to conditions: route intraperitoneal. It counts as functional.
For data set [12], the system named is Rattus norvegicus. As to the kind of experiment: Compound was tested in hypoxia -ischemia reduction model for percent reduction in lesion volume at the dose 4 mg/kg (iv). It counts as functional.

SMILES strings stand for the structures. Bounds are passed on as bounds.

In the case of `CN(C(=N)Nc1cc([S+](C)[O-])ccc1Cl)c1cccc([S+](C)[O-])c1` (centres undefined), the results for the IC50 in [1] and in [2] were above 25 µM and 81 µM, respectively.

Consider `CSc1cccc(N(C)C(=N)Nc2cc([S+](C)[O-])ccc2Cl)c1.Cl` (centres undefined), for which the half-inhibitory concentration (IC50) is above 25 µM in [1] and 29.5 µM in [2]. Also, in [3], the Ki turned out to be 0.834 µM.

As for `CSc1ccc(Cl)c(NC(=N)N(C)c2cccc([S+](C)[O-])c2)c1` (single isomer, unassigned; (-)), the IC50 in data set [1] is above 25 µM; in [2], 26 µM. The molecule further came in with a Ki in [3] of 0.321 µM.

`CSc1ccc(Cl)c(NC(=N)N(C)c2cccc([S+](C)[O-])c2)c1` (stereo in doubt; 10): the results for the ED50 in data set [4] and in [10] were 8.8 mg/kg and 12 mg/kg, respectively. The same molecule came in with a half-life in data set [5] of 31 min. Besides, the Reduction in [6] was 32%; in data set [7], 60%; in data set [9], 100%. Further, the IC50 was determined as 83.1 µM in [1] and 26 µM in [2]. In data set [3], this molecule gave an inhibition constant (Ki) of 0.179 µM. In addition, the Dose in [8] came out at 4 mg/kg.

Turning to `CSc1ccc(Cl)c(NC(=N)N(C)c2cccc([S+](C)[O-])c2)c1` (stereo in doubt; 15), the T1/2 in data set [5] was 32 min. Further, the IC50 is above 25 µM in data set [1] and 23.7 µM in data set [2]. Further, the Ki in [3] came to 0.233 µM.

For the molecule `CSc1cccc(N(C)C(=N)Nc2cc(SC)ccc2Cl)c1` [CNS-5161], the ED50 in data set [4] came to 0.14 mg/kg; in data set [10], 0.9 mg/kg. Besides, the IC50 in [1] came to 1.75 µM; in data set [2], 2.25 µM. For the same molecule, the values for the Reduction in [11] and in data set [12] were 33% and 74%, respectively. The Dose in [8] is 0.25 mg/kg.
